The results in this text go back to US9079915B2, “Thienyl- and furanyl-isoquinolinones and methods for using them” (priority 2008, dated 2015).

Data set [1] has as its target T1, hrPARP-1 (human recombinant, Trevigen) (Homo sapiens, UniProt P09874).
T1 construct: purchased Trevigen
In words: Functional assessment of human PARP-1 enzymatic activity. The note with it: 1 U hrPARP-1, 15 μg/mL activated DNA, 5 μM NAD+, 20 min room temperature. The class given is biochemical. How it is done: Functional Assessment of Human PARP-1 Enzymatic Activity
hrPARP-1 (human recombinant, Trevigen), Activated DNA (Sigma), 6(5H)-phenanthridinone (PND), (Sigma), NAD+ (Calbiochem), PARP-1 assay buffer (50 mM Tris, 2 mM MgCl2, pH 8.0), 20% acetophenone in EtOH, 2 M KOH
88% formic acid, 110° C. oven, Flexstation Plate Reader.
Compound plates were prepared by making a series of 1:3 dilutions for each tested compound, 10 steps of each at 20 μL in DMSO starting from a concentration of 5 mM. NAD^+ (39 μL of a 6.4 μM solution) were added to each well of a 96-well flat bottom fluorescent assay plate. Test compound (1 μL) was added to each well. To initiate the reaction, 10 μL of PARP (contains 5 U of PARP and 75 μg/mL activated DNA) was added with a final 1 U hrPARP-1, 15 μg/mL activated DNA and 5 μM of NAD^+. The highest concentration used for test compounds was 100 μM. The plates were incubated at room temperature on a shaker. After 20 min, 20 μL of 2 M KOH and 20 μL of 20% acetophenone were added. The plate was incubated 10 min. at 4° C., and 90 μL of 88% formic acid was added. After incubating in an 110° C. oven for 5 min, the plate was cooled to room temperature and read of a Flexstation Plate Reader (excitation at 360 nm, emission at 445 nm).
LSW data analysis software was used to generate PARP-1 IC50s.

Data set [2] is described as follows: MDCK permeability assay (efflux ratio). The class given is in vitro ADME, Canine. The settings on record: dog, MDCK-MDR1, pH 7.4, MDR-MDCK cells, 37° C., Papp(B-A)/Papp(A-B). As to the method:
1. MDCK Permeability Assay
Multi Drug Resistance-Madin-Darby Canine Kidney (MDR-MDCK) cells were obtained from NIH (Bethesda, Md., USA). Cells were plated on Costar 3401 Transwell 12 well, 12 mm diameter, 0.4 um pore size plates (Costar, Mass., USA) and cultured for at least 6 days prior to the transport assay. The cells were carefully pre-washed with Hank's balanced salt solution containing 10 mM HEPES and 15 mM D-glucose at pH 7.4, which was also used as the assay buffer. The test compounds were dosed on the apical side (A-B) or the basolateral side (B-A) with 0.2 mM Lucifer Yellow (500 μL into apical side, 1500 μL into basolateral side). The test compounds in the apical or basolateral chambers were at an initial concentration of 10 μM. The plates were incubated at 37° C. with 5% CO2 and 90% relative humidity for 2 hours. One hundred microliters of receiver solution (basolateral side for A-B transport experiment, apical side for B-A transport experiment) was transferred to a 96 well plate for LC-MS-MS quantization of the test compound concentration and fluorometer quantization of Lucifer Yellow.
Quality control compounds and TEER measurements were run to assure proper operation of the assay (see Table 2). The TEER values of each well use for the assay should be ≧1400 ohm·cm^2.

A short description of data set [3]: Microsomal stability, C57 mouse liver microsomes. The class given is in vitro ADME. The note with it: 0.5 mg/mL protein. How it is done: (§1) The assay protocol was described in Summerfield S G, Read K, Begley D J, Obradovic T, Hidalgo I J, Coggon S, Lewis A V, Porter R A, Jeffrey P 2007. Central Nervous System Drug Disposition: The Relationship between in Situ Brain Permeability and Brain Free Fraction. J Pharmacol Exp Ther, 322(1):205-213; and Li Di, E. Kerns, S. Li, S. Petusky, “High Throughput Metabolic Stability Assay for Insoluble Compounds”, Int. J. Pharm., 317, 54-60, 2006.
(§2) The samples were incubated with liver microsomes from rat, mouse, and human at 1 μM at microsomal protein concentration of 0.5 mg/mL at 37° C. in the presence of NADPH cofactor. At both time 0 and 15 minutes incubation, cold acetonitrile was added to the wells to stop the reaction. The solution was centrifuged and the supernatants were analyzed using LC-MS-MS. “Phase I” represents Phase I metabolism-oxidative metabolism by microsomes and “Phase II” represents Phase I oxidative metabolism (stated above) plus cofactors added that allow for Phase II (non-oxidative, conjugative) metabolism to take place.
A general note: Liver microsomes are a subcellular fraction often used to study metabolism.

Data set [4] is described as follows: Brain (B)-Plasma (P) dialysis. The class given is in vitro ADME. The note with it: for Kp at 5 h, 10 μM: diluted plasma or brain homogenate vs PBS, 37° C., read-out: Brain-Plasma Dialysis B/P Ratio; for B/P ratio divided by MDCK efflux ratio at 10 μM: read-out: Brain-Plasma Dialysis B/P/efflux ratio (ER). As to the method: 2. Brain (B)-Plasma (P) Dialysis
DMSO stock solution of 1 mM was prepared and 10 μL was added to 990 uL plasma (1 plasma:3 PBS) or brain homogeneous (1 brain:12 PBS). The final concentration was 10 μM test compound with 1% DMSO. The dialysis was setup with 200 uL PBS vs. 200 uL diluted plasma or diluted brain homogenates with test compounds. The dialysis plate was incubated at 37° C., 70 RPM for 5 hours. At the end of the incubation, 150 μL PBS, 50 uL plasma and 50 uL of brain homogenates were sampled from the dialysis device. Each of the samples was matched with PBS, plasma and brain homogenates to give consistent matrix material. Cold acetonitrile of 300 μL was added to the sample to precipitate the proteins and tissues. The solutions were centrifuged and the supernatants were transferred for LC-MS-MS analysis. Four replicates were preformed for each test compound. Data was calculated according to Summerfield S G, Read K, Begley D J, Obradovic T, Hidalgo I J, Coggon S, Lewis A V, Porter R A, Jeffrey P 2007. Central Nervous System Drug Disposition: The Relationship between in Situ Brain Permeability and Brain Free Fraction.

Data set [5] in a line: Microsomal stability, human liver microsomes. The class given is in vitro ADME. The note with it: 0.5 mg/mL protein. How it is done:
as §1, §2

Data set [6] is described as follows: Microsomal stability, rat liver microsomes. The class given is in vitro ADME. The note with it: 0.5 mg/mL protein. How it is done:
as §1, §2

[7] abbreviates: NADPH, Phase I, read-out: Microsomal Stability C57 Mouse Phase I t1/2.
Where [8] appears, read: Phase I plus Phase II cofactors, read-out: Microsomal Stability C57 Mouse Phase I & II t1/2.
The mark [9] stands for this setting: NADPH, Phase I, read-out: Microsomal Stability Human Phase I t1/2.
Where [10] appears, read: Phase I plus Phase II cofactors, read-out: Microsomal Stability Human Phase I & II t1/2.
The mark [11] stands for this setting: NADPH, Phase I, read-out: Microsomal Stability Rat Phase I t1/2.
Setting [12] is: Phase I plus Phase II cofactors, read-out: Microsomal Stability Rat Phase I & II t1/2.

A value given as a limit tells only on which side of the number the result lay.

T1 sequence (P09874 whole entry): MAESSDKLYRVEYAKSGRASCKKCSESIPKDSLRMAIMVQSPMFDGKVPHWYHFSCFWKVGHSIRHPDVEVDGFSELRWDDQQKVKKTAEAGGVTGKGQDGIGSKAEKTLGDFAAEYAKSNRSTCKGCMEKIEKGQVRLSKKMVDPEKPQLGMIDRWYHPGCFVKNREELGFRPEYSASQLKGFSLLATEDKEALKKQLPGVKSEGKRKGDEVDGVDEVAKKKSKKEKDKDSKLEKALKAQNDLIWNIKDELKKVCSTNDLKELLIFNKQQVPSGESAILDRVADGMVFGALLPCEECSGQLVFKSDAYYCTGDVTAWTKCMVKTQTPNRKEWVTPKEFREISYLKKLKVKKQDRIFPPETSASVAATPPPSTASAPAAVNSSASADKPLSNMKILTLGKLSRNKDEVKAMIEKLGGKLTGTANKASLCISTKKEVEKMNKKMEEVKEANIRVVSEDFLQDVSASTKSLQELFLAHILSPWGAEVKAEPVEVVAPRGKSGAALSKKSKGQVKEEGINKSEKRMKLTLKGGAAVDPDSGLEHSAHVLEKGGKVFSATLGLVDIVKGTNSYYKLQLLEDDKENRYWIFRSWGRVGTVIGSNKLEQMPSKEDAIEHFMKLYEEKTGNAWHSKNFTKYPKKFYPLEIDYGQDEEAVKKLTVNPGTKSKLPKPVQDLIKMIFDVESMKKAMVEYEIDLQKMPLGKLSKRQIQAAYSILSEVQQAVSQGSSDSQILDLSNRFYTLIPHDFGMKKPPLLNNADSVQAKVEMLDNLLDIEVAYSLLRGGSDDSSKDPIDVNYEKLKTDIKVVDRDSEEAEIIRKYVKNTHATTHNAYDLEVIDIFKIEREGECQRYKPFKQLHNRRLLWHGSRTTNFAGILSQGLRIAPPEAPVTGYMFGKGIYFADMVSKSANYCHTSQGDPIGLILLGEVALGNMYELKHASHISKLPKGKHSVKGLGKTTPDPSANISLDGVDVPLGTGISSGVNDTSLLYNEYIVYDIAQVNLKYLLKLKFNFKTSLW

`COc1cccc2c(=O)[nH]c3sc(CN(C)C)cc3c12.Cl` [Example 1, 2-Dimethylaminomethyl-9-methoxythieno[2,3-c]isoquinolin-5(4H)-one hydrochloride] came in with a melting point of 264 to 265 °C. In data set [1], the IC50 was determined as 137 nM.
For `O=c1[nH]c2sc(CN3CCOCC3)cc2c2c(O)cccc12` [Example 10, 9-Hydroxy-2-(morpholin-4-ylmethyl)thieno[2,3-c]isoquinolin-5(4H)-one], in data set [2], the efflux ratio at 2 h, 10 μM was determined as 3.1. Also, the half-life at 1 μM in data set [3] (setting [7]) was > 30 min; in data set [3] (setting [8]), > 30 min; in data set [5] (setting [9]) it was > 30 min; in data set [5] (setting [10]) it was 30 min; in data set [6] (setting [11]), 30 min; in data set [6] (setting [12]), > 30 min. Moreover, the IC50 in data set [1] is 5.6 nM. For the same compound, the Kp at 5 h, 10 μM in data set [4] is 0.81. Moreover, the B/P ratio divided by MDCK efflux ratio at 10 μM in data set [4] stood at 0.04.
On to `O=c1[nH]c2sc(CN3CCC(Br)CC3)cc2c2c(O)cccc12` [Example 15, 2-[(4-Bromopiperidin-1-yl)methyl]-9-hydroxythieno[2,3-c]isoquinolin-5(4H)-one], for which, in data set [2], the efflux ratio at 2 h, 10 μM was found to be 0.9. Moreover, the half-life at 1 μM in data set [3] (setting [7]) amounted to 4 min; in data set [3] (setting [8]), 3 min; in data set [5] (setting [9]), 7 min; in data set [5] (setting [10]), 5 min; in data set [6] (setting [11]) it was 3 min; in data set [6] (setting [12]), 3 min. In data set [1], the IC50 came to 35 nM. The Kp at 5 h, 10 μM in data set [4] came to 1.12. In addition, the B/P ratio divided by MDCK efflux ratio at 10 μM in data set [4] came to 1.12.

The IC50 is the concentration that gives 50% inhibition. By melting point is commonly meant the temperature of the solid-liquid transition. The efflux ratio is the permeability from basolateral to apical divided by that in the opposite direction, in the common usage.
